Results taken from patent publication US20110015264A1 (priority 2006, published 2011).
Like-named read-outs stand apart in the source and are kept apart here.

Key:
[1] = system: A/Victoria/3/75 (H3N2) influenza virus; parameters: species or system BALB/c mice; settings: mouse, in vivo
[2] = system: A/NWS/33 (H1N1) influenza virus; settings: mouse, in vivo
[3] = molecular target: neuraminidase enzyme N9 from H1N9 virus (Influenza A virus, UniProt P03472); experiment: biochemical; parameters: species or system A/H1N9 (NWS/G70) avian virus; settings: for IC90: read-out: IC90 against N9 enzyme
[4] = molecular target: N9 neuraminidase (Influenza A virus, UniProt P03472); assay type: binding, A/H1N9 (NWS/G70) avian virus
[5] = system: influenza virus; parameters: species or system BALB/c mice; settings: mouse, in vivo
[6] = molecular target: H1N1 neuraminidase (UniProt P03470); settings: read-out: IC50 against H1N1; Bantia et al. 2001; cited from earlier work
[7] = system: influenza; settings: human, in vivo, po; cited from earlier work

Chain of neuraminidase enzyme N9 from H1N9 virus (P03472 whole entry, looked up): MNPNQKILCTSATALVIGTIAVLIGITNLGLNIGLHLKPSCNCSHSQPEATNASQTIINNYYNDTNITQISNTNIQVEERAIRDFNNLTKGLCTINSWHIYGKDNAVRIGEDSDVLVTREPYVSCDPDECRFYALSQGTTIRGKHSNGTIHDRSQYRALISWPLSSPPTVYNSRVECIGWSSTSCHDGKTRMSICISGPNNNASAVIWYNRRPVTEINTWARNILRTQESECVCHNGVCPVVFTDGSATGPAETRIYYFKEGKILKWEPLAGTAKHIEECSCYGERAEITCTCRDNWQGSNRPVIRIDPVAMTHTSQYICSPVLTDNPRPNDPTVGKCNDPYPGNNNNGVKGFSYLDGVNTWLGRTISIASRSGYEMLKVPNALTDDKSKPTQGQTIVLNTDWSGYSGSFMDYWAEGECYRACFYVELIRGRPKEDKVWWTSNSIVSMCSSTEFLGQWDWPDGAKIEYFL
Chain of N9 neuraminidase (P03472 whole entry, looked up): as above
Chain of H1N1 neuraminidase (P03470 whole entry, looked up): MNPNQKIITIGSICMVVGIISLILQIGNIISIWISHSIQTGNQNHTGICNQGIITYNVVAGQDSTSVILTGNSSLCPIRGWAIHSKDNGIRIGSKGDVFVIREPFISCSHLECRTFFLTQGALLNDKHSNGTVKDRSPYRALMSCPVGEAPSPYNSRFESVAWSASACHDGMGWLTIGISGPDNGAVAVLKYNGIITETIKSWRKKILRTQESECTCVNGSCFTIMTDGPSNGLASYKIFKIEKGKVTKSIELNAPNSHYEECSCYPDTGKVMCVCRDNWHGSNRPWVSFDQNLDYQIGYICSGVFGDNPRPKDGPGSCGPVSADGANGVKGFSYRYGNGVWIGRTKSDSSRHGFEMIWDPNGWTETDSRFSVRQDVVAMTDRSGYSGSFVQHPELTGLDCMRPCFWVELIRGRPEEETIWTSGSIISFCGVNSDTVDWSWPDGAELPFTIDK

CCOC(=O)C1=C[C@@H](OC(CC)CC)[C@H](NC(C)=O)[C@@H](N)C1 [oseltamivir, reference compound]
mean weight loss by day 8 ([1]; po): about 5.1 g
mean weight loss by day 8, % of weight ([1]; po): 28%
survived (protection against lethality) ([1]; po): 9/10
survival rate [2]: 10%
mice survived ([2]; 10 mg/kg): 3 out of 10
protection against lethality ([2]; 10 mg/kg): 30%
weight loss ([2]; 10 mg/kg): about 4 g
weight loss and mortality ([2]; 10 mg/kg): no efficacy
weight loss, % of initial weight ([2]; 10 mg/kg): 25 % of initial weight
greatest mean weight loss at day 8 ([2]; po, 2 mg/kg/day): 1.34 g
greatest mean weight loss at day 8 ([2]; po, 10 mg/kg/day): 0 g

CCC(CC)C(NC(C)=O)[C@@H]1[C@H](O)[C@@H](C(=O)O)C[C@H]1NC(=N)N (stereo partly drawn) [peramivir, (1S,2S,3R,4R)-3-(1-Acetamido-2-ethylbutyl)-4-guanidino-2-hydroxycyclopentane-carboxylic acid]
IC50 [3]: 1.3 ± 0.4 nM
IC90 [3]: 5 nM
t1/2 of dissociation from N9 neuraminidase [4]: > 24 h
mean weight loss by day 8 [1]: 4.5 g
mean weight loss by day 8, % of weight [1]: 25%
survived (protection against lethality) [1]: 9/10
effectiveness of delayed treatment [5]: highly effective
protection against lethality [5]: complete protection against lethality
weight loss by day 5 [5]: no significant weight loss
weight loss by day 5 ([5]; po): no significant weight loss
prevention of weight loss in infected mice [2]: effective in preventing weight loss
survival [2]: 40%
survival rate [2]: 50%
effectiveness in terms of survival ([2]; 1 mg/kg): not effective
mean days to death ([2]; 1 mg/kg): significant increase
weight loss and mortality ([2]; 10 mg/kg): significantly reduced
weight loss by day 5 ([2]; 10 mg/kg): no weight loss
weight loss, % of initial weight ([2]; 10 mg/kg): about 1.7 % of initial weight
signs of drug-related toxicity ([2]; 20 mg/kg): No signs of drug-related toxicity
survival ([2]; po, 1 mg/kg/day): 60%
weight loss by day 5 ([2]; po, 10 mg/kg): 0.22 g
protection against lethality ([2]; po, 10 mg/kg/day): Complete protection against lethality
IC50 [6]: 0.11 nM
inhibitory effect on influenza in humans [7]: undesirably low inhibitory effect

CC(=O)N[C@H]1[C@H]([C@H](O)[C@H](O)CO)OC(C(=O)O)=C[C@@H]1N=C(N)N [zanamivir, reference compound]
IC90 [3]: 10 nM
t1/2 of dissociation from N9 neuraminidase [4]: 1.25 h
